Literature values, collected in patent US5661161A, “Inhibitors of farnesyl-protein transferase” (Merck & Co., Inc., priority 1995, dated 1997).

Test system: farnesyl-protein transferase
Conditions: literature; via inhibition of HMG-CoA reductase

SMILES | Indirect inhibition of farnesyl-protein transferase in vivo
CC[C@H](C)C(=O)O[C@H]1CCC=C2C=C[C@H](C)[C@H](CC[C@@H]3C[C@@H](O)CC(=O)O3)[C@H]21 [compactin] | Indirect inhibition
CC[C@H](C)C(=O)O[C@H]1C[C@@H](C)C=C2C=C[C@H](C)[C@H](CC[C@@H]3C[C@@H](O)CC(=O)O3)[C@H]21 [lovastatin] | Indirect inhibition
